Results published in patent US20080311158A1, “Hepatitis C Virus Replication System” (priority 2004, published 2008).
“Also recorded” adds a separate entry of the source.

Experiments:
[1] = system: E1 and E2 distribution in 21-5/R809 cells; assay: Intracellular immunofluorescence of E1/E2 in 21-5/R809 cells before and after IFN-α treatment; format: cell-based, human; conditions: anti E1/E2 staining, FIG. 16
Description: Cells were stained with anti E1/E2.
Cells were plated on […] coverslips in 24-well plates at a density of 5×10^4 cells per well. One day after seeding, cells were washed in PBS, fixed in 4% formaldehyde for 30 min and then permeabilized with 0.1% Triton X-100 in PBS for 15 min. Cells were then pretreated with blocking solution (0.5% bovin serum albumin in PBS) for 30 min and incubated for 1 h at room temperature with the primary antibodies diluted in blocking solution according to the manufacturer's instructions. After three washes in PBS, AlexaFluor-conjugated secondary antibodies were added to the cells at a 1:200 dilution for 1 h at room temperature. After washings with PBS, coverslips were washed in distilled water, and mounted in aqueous mounting medium Vectashield with DAPI (4′,6′-diamidino-2-phenylindole).

[2] = system: HCV RNA in 21-5/R809 cells; assay: HCV RNA levels after IFN-α treatment of 21-5/R809 cell culture; format: cell-based, hepatitis C virus; conditions: 21-5/R809 cells incubated with IFN-α
From the text: FIGS. 17 and 18 show levels of HCV RNA or ribosomal RNA after IFN-α treatment of cell culture.

[3] = system: HCV replication; conditions: reference 101; cited from earlier work

Substance: Interferon alpha [IFN-α]
- ER-pattern distribution of E1 and E2 [1]: lose the typical ER-pattern distribution of E1 and E2; also recorded: changed the ER-pattern distribution of E1 and E2
- HCV RNA levels, absolute ([2]; FIG. 17): decrease
- HCV RNA levels relative to ribosomal RNA ([2]; FIG. 18): decrease
- HCV replication in cell culture [3]: inhibit HCV replication
